{"source": "patent US6465618B1", "about": "“Mitogen activated protein kinase (MAPK) kinase” (Asahi Kasei Kabushikiki Kaisha, priority 1997, dated 2002)", "key": {"SEK1/MKK4": {"system": "SEK1/MKK4", "test": "Activation of SEK1/MKK4 by TNF-α in KB and U937 cells (immune complex kinase assay)", "format": "cell-based", "conditions": "KB cells 20 ng/ml, U937 cells 100 ng/ml human TNF-α; 5 to 180 minutes", "experimental": "(§1) KB cells were cultured in Dulbecco's modified Eagles medium (DMEM) containing 10% bovine serum, and the cultured cells were stimulated with 20 ng/ml human TNF-α (manufactured and sold by BECTON DICKINSON AND COMPANY, USA, under the brand of Collaborative Biomedical Products). U937 cells were cultured in RPMI 1640 medium containing 10% fetal bovine serum, and the cultured cells were stimulated with 100 ng/ml human TNF-α. The cells were sampled from each cell culture 5, 15, 30, 60, 120 and 180 minutes after the start of the stimulation to thereby prepare cell extracts. The cell extracts were prepared as follows. The sampled cells were suspended in 0.7 M NaCl solution and washed once with ice-cold HEPES-buffered saline. […]\n(§2) To 200 μl of the cell extract was added 3 μl of an antiserum (anti-MKK7 antiserum and anti-SEK1/MKK4 antiserum were separately used), and a reaction for preparing an immune complex was allowed to proceed while incubating at 4° C. for 1 hour. […] The phosphorylation of c-Jun was detected by autoradiography and used as an index for the activation of MKK7 or SEK1/MKK4 by TNF-α."}, "MKK7": {"system": "MKK7", "test": "Activation of MKK7 by TNF-α in KB and U937 cells (immune complex kinase assay)", "format": "cell-based", "conditions": "KB cells 20 ng/ml, U937 cells 100 ng/ml human TNF-α; 5 to 180 minutes", "experimental": "as §1, §2"}}, "data": [{"substance": "TNF-α", "values": [{"measurement": "activation of SEK1/MKK4 by TNF-α (phosphorylation of c-Jun as index)", "setting": "SEK1/MKK4", "result": "did not activate"}, {"measurement": "activation of MKK7 by TNF-α (phosphorylation of c-Jun as index)", "setting": "MKK7", "result": "activated"}]}]}
